biological target: Human immunodeficiency virus type 1 protease (Human immunodeficiency virus 1, UniProt Q72874); assay: Inhibitory activity against HIV-1 protease

Structure (SMILES) | IC50 [µM]
O[C@H]([C@H](O)[C@H](COCc1ccccc1)OCc1ccccc1)[C@@H](COCc1ccccc1)OCc1ccccc1 | > 50
O[C@H]([C@H](O)[C@@H](COCc1ccccc1)OCc1ccccc1)[C@@H](COCc1ccccc1)OCc1ccccc1 | > 50
O[C@@H]([C@H](O)[C@@H](COCc1ccccc1)OCc1ccccc1)[C@@H](COCc1ccccc1)OCc1ccccc1 | 2.4
OC(C(COCc1ccccc1)OCc1c(F)cccc1F)C(O)C(COCc1ccccc1)OCc1c(F)cccc1F (stereo not drawn) | 6.4
OC(C(COCc1ccccc1)OCc1ccccc1F)C(O)C(COCc1ccccc1)OCc1ccccc1F (stereo not drawn) | 3.7
OC(C(COCc1ccccc1)OCc1ccc(F)cc1F)C(O)C(COCc1ccccc1)OCc1ccc(F)cc1F (stereo not drawn) | 2.6
OC(C(COCc1ccccc1)OCc1cccc(F)c1)C(O)C(COCc1ccccc1)OCc1cccc(F)c1 (stereo not drawn) | 1.8
Cc1ccc(COC(COCc2ccccc2)C(O)C(O)C(COCc2ccccc2)OCc2ccc(C)cc2)cc1 (stereo not drawn) | 3.7
OC(C(COCc1ccccc1)OCc1ccc(C(F)(F)F)cc1)C(O)C(COCc1ccccc1)OCc1ccc(C(F)(F)F)cc1 (stereo not drawn) | 10
O[C@@H](C[C@@H](COCc1ccccc1)OCc1ccccc1)[C@@H](COCc1ccccc1)OCc1ccccc1 | > 50
OC(C(COCc1c(F)cccc1F)OCc1ccc(F)cc1)C(O)C(COCc1c(F)cccc1F)OCc1ccc(F)cc1 (stereo not drawn) | 0.33
N#Cc1ccc(COC(COCc2ccccc2)C(O)C(O)C(COCc2ccccc2)OCc2ccc(C#N)cc2)cc1 (stereo not drawn) | 5.4
O[C@H]([C@@H](O)[C@H](COCc1ccccc1)OCc1ccccc1)[C@H](COCc1ccccc1)OCc1ccccc1 | > 50
OC(C(COCc1ccc(C(F)(F)F)cc1)OCc1ccc(C(F)(F)F)cc1)C(O)C(COCc1ccc(C(F)(F)F)cc1)OCc1ccc(C(F)(F)F)cc1 (stereo not drawn) | 6
OC(C(COCc1ccccc1)OCc1ccc(Br)cc1)C(O)C(COCc1ccccc1)OCc1ccc(Br)cc1 (stereo not drawn) | 2.1
O=C(O)c1ccc(COCC(OCc2ccccc2)C(O)C(O)C(COCc2ccc(C(=O)O)cc2)OCc2ccccc2)cc1 (stereo not drawn) | 5
COC(=O)c1ccc(COC(COCc2ccccc2)C(O)C(O)C(COCc2ccccc2)OCc2ccc(C(=O)OC)cc2)cc1 (stereo not drawn) | 8.4
OC(C(COCc1ccccc1F)OCc1ccc(F)cc1)C(O)C(COCc1ccccc1F)OCc1ccc(F)cc1 (stereo not drawn) | 0.2
OC(C(COCc1ccccc1)OCc1ccc(Cl)cc1)C(O)C(COCc1ccccc1)OCc1ccc(Cl)cc1 (stereo not drawn) | 2
OC(C(COCc1ccccc1)OCc1ccc(F)cc1)C(O)C(COCc1ccccc1)OCc1ccc(F)cc1 (stereo not drawn) | 0.7
N#Cc1ccc(COCC(OCc2ccc(C#N)cc2)C(O)C(O)C(COCc2ccc(C#N)cc2)OCc2ccc(C#N)cc2)cc1 (stereo not drawn) | 3.1
Cc1ccc(COCC(OCc2ccccc2)C(O)C(O)C(COCc2ccc(C)cc2)OCc2ccccc2)cc1 (stereo not drawn) | 3

Structure (SMILES) | IC50 [µM]
OC(C(COCc1ccccc1F)OCc1ccccc1)C(O)C(COCc1ccccc1F)OCc1ccccc1 (stereo not drawn) | 0.6
OCc1ccc(COC(COCc2ccccc2)C(O)C(O)C(COCc2ccccc2)OCc2ccc(CO)cc2)cc1 (stereo not drawn) | 10
N#Cc1ccc(COCC(OCc2ccccc2)C(O)C(O)C(COCc2ccc(C#N)cc2)OCc2ccccc2)cc1 (stereo not drawn) | 4.3
O=C(O)c1ccc(COC(COCc2ccccc2)C(O)C(O)C(COCc2ccccc2)OCc2ccc(C(=O)O)cc2)cc1 (stereo not drawn) | 26
OC(C(COCc1cccc(F)c1)OCc1ccccc1)C(O)C(COCc1cccc(F)c1)OCc1ccccc1 (stereo not drawn) | 1.5
NCc1ccc(COC(COCc2ccccc2)C(O)C(O)C(COCc2ccccc2)OCc2ccc(CN)cc2)cc1 (stereo not drawn) | 27
OC(C(COCc1ccc(Cl)cc1)OCc1ccccc1)C(O)C(COCc1ccc(Cl)cc1)OCc1ccccc1 (stereo not drawn) | 5.2
Cc1ccc(COCC(OCc2ccc(C)cc2)C(O)C(O)C(COCc2ccc(C)cc2)OCc2ccc(C)cc2)cc1 (stereo not drawn) | 7
OC(C(COCc1ccc(F)cc1)OCc1ccc(F)cc1)C(O)C(COCc1ccc(F)cc1)OCc1ccc(F)cc1 (stereo not drawn) | 1.6
O[C@@H]([C@H](O)[C@@H](Cc1ccccc1)OCc1ccccc1)[C@@H](Cc1ccccc1)OCc1ccccc1 | > 50
OC(C(COCc1ccc(Br)cc1)OCc1ccccc1)C(O)C(COCc1ccc(Br)cc1)OCc1ccccc1 (stereo not drawn) | 6
NC(=O)c1ccc(COC(COCc2ccccc2)C(O)C(O)C(COCc2ccccc2)OCc2ccc(C(N)=O)cc2)cc1 (stereo not drawn) | 20
OC(C(COCc1ccc(F)cc1)OCc1ccccc1)C(O)C(COCc1ccc(F)cc1)OCc1ccccc1 (stereo not drawn) | 2.5
COC(=O)c1ccc(COCC(OCc2ccccc2)C(O)C(O)C(COCc2ccc(C(=O)OC)cc2)OCc2ccccc2)cc1 (stereo not drawn) | 2
OC(C(COCc1c(F)cccc1F)OCc1ccccc1)C(O)C(COCc1c(F)cccc1F)OCc1ccccc1 (stereo not drawn) | 0.33
OC(C(COCc1ccc(F)cc1F)OCc1ccccc1)C(O)C(COCc1ccc(F)cc1F)OCc1ccccc1 (stereo not drawn) | 4.2
O[C@@H]([C@H](OCc1ccccc1)[C@H](COCc1ccccc1)OCc1ccccc1)[C@@H](COCc1ccccc1)OCc1ccccc1 | > 50
OC(C(COCc1ccc(C(F)(F)F)cc1)OCc1ccccc1)C(O)C(COCc1ccc(C(F)(F)F)cc1)OCc1ccccc1 (stereo not drawn) | 5
O[C@@H]([C@H](O)[C@@H](COc1ccccc1)OCc1ccccc1)[C@@H](COc1ccccc1)OCc1ccccc1 | > 50
Cc1ccccc1COC(COCc1ccccc1F)C(O)C(O)C(COCc1ccccc1F)OCc1ccccc1C (stereo not drawn) | 0.8
OCc1ccc(COCC(OCc2ccccc2)C(O)C(O)C(COCc2ccc(CO)cc2)OCc2ccccc2)cc1 (stereo not drawn) | 1.2

From ChEMBL document CHEMBL1136301, “1,2,5,6-tetra-O-benzyl-D-mannitol derivatives as novel HIV protease inhibitors” (Bioorg Med Chem Lett, 2003)
